Remaining activity and IC50 data for three molecules are collected here from US10757937B2, “Sulfonamides that activate ABA receptors” (The Regents of the University of California, priority 2014, dated 2020).

By remaining activity is commonly meant the share of the control activity or signal that is left under treatment. Low values mean a large loss of activity, high ones a small loss of activity. Broadly, the IC50 is the midpoint of a concentration-inhibition curve.

Common to all, as to test: receptor-mediated PP2C (HAB1) inhibition in vitro assay
Common to all, as to assay type: biochemical

In assay [1] the target is T1, PYL9 (Arabidopsis thaliana, UniProt Q84MC7).
T1 construct: 6X-His; made in house; host or cells: E. coli BL21[DE3]pLysS
T1 sequence (Q84MC7 1-187): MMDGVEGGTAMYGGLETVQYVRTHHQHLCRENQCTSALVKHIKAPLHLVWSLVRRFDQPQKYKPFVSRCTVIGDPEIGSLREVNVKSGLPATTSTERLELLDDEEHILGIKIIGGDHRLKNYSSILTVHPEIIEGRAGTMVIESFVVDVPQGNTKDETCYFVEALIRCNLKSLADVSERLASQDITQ
T1 sequence (Q9CAJ0 23-511 partner): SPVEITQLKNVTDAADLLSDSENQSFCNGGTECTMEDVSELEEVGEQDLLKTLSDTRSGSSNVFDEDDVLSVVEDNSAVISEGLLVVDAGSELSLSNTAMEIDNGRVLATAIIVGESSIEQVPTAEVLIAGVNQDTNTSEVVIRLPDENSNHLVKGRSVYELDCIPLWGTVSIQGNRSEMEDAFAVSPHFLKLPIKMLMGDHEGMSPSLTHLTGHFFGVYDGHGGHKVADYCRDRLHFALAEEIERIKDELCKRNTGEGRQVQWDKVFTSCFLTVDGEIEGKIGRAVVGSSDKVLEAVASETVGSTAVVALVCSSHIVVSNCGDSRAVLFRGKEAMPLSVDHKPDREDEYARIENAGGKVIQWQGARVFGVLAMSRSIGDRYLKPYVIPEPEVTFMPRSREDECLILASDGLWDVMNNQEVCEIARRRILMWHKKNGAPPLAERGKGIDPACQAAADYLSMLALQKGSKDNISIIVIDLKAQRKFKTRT
The note with it: for remaining activity at 50 µM: 50 uM of the test compound; for IC50: Table XII-B, calculated from dose curves, read-out: PP2C Activity (IC50 in uM) PYL9. The gist of the method: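 Fluorogenic readout: 4-methylumbelliferyl-phosphate hydrolysis by 50 nM GST-HAB1 plus 2:1 His-receptor; Tris-OAc pH 7.9, NaCl, 1 mM MnCl2, β-ME. Compounds at 25 μM or 50 uM single dose; IC50 from dose curves for selected compounds.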

For assay [2], the target named is T2, PYL11 (Arabidopsis thaliana, UniProt Q9FJ50).
T2 construct: made in house; host or cells: E. coli BL21[DE3]pLysS
T2 sequence (Q9FJ50 1-161): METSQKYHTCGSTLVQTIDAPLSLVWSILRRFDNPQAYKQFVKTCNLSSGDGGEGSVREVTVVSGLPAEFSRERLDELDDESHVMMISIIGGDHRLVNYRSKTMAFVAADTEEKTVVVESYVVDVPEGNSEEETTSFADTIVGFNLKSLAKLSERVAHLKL
T2 sequence (Q9CAJ0 23-511 partner): T1 sequence (Q9CAJ0 23-511 partner)
The conditions noted are these: for remaining activity at 50 µM: 50 uM of the test compound; for IC50: Table XII-B, calculated from dose curves, read-out: PP2C Activity (IC50 in uM) PYL11. The gist of the method:
(§1)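 Compounds, tested at 25 μM or 50 uM with ABA at 10 uM, were incubated with recombinant receptor and 50 nM GST-HAB1 (2:1 ratio) in MnCl2-containing Tris-OAc buffer, pH 7.9. Phosphatase activity was followed by 4-methylumbelliferyl-phosphate fluorescence.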

In assay [3] the target is T3, PYL2 (Arabidopsis thaliana, UniProt O80992).
T3 construct: 6X-His; made in house; host or cells: E. coli BL21[DE3]pLysS
T3 sequence (O80992 1-190): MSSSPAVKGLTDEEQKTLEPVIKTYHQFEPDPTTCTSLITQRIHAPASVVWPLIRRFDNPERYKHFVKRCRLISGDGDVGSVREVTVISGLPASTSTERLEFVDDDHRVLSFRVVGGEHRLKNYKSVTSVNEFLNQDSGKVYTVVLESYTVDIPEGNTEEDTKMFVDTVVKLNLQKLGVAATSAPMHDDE
T3 sequence (Q9CAJ0 23-511 partner): T1 sequence (Q9CAJ0 23-511 partner)
The note with it: for remaining activity at 50 µM: 50 uM of the test compound; for IC50: Table XII-B, calculated from dose curves, read-out: PP2C Activity (IC50 in uM) PYL2. The gist of the method:
as §1

The target of assay [4] is T4, PYL1 (Arabidopsis thaliana, UniProt Q8VZS8).
T4 construct: 6X-His; made in house; host or cells: E. coli BL21[DE3]pLysS
T4 sequence (Q8VZS8 1-221): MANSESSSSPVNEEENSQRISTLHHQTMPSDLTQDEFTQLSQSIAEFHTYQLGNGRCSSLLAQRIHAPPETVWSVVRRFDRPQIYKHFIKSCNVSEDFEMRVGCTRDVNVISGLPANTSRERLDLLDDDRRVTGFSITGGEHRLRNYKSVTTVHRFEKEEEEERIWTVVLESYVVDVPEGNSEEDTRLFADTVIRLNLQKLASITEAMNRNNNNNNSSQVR
T4 sequence (Q9CAJ0 23-511 partner): T1 sequence (Q9CAJ0 23-511 partner)
The note with it: for remaining activity at 50 µM: 50 uM of the test compound; for IC50: Table XII-B, calculated from dose curves, read-out: PP2C Activity (IC50 in uM) PYL1. Summed up: as §1

Assay [5] addresses T5, PYL10 (Arabidopsis thaliana, UniProt Q8H1R0).
T5 construct: 6X-His; made in house; host or cells: E. coli BL21[DE3]pLysS
T5 sequence (Q8H1R0 1-183): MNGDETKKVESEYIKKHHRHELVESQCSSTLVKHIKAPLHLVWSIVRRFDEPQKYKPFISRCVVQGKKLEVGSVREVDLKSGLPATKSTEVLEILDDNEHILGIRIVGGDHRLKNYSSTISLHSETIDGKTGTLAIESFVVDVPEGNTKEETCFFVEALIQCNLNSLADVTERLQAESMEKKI
T5 sequence (Q9CAJ0 23-511 partner): T1 sequence (Q9CAJ0 23-511 partner)
The conditions noted are these: for remaining activity at 50 µM: 50 uM of the test compound; for IC50: Table XII-B, calculated from dose curves, read-out: PP2C Activity (IC50 in uM) PYL10. The gist of the method:
as §1

Assay [6] addresses T6, PYL6 (Arabidopsis thaliana, UniProt Q8S8E3).
T6 construct: 6X-His; made in house; host or cells: E. coli BL21[DE3]pLysS
T6 sequence (Q8S8E3 1-215): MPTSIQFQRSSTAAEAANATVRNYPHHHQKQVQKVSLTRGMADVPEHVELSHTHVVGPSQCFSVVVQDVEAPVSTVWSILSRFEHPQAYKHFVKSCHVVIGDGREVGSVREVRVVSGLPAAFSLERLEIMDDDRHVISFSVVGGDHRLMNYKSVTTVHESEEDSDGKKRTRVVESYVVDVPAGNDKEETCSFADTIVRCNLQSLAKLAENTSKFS
T6 sequence (Q9CAJ0 23-511 partner): T1 sequence (Q9CAJ0 23-511 partner)
The conditions noted are these: for remaining activity at 50 µM: 50 uM of the test compound; for IC50: Table XII-B, calculated from dose curves, read-out: PP2C Activity (IC50 in uM) PYL6. Summed up: as §1

In the case of `N#Cc1ccc(CS(=O)(=O)NC(=O)C2(c3cccs3)CCCCC2)cc1` [Compound 75, N-[(4-Cyanophenyl)methanesulfonyl]-1-(thiophen-2-yl)cyclohexane-1-carboxamide], the remaining activity at 50 µM in assay [1] worked out at 6.9%; in assay [2], 9.8%; in assay [3], 89.5%; in assay [4] it was 95.5%; in assay [5] it was 27%; in assay [6], 57.2%. For the same molecule, the IC50 in assay [1] was 0.083 µM; in assay [2], 0.39 µM; in assay [3], above 50 µM; in assay [4] it was above 50 µM; in assay [5], 0.38 µM; in assay [6] it was above 50 µM.

Regarding `N#Cc1ccc(CS(=O)(=O)NC(=O)C2(c3ccsc3)CCCCC2)cc1` [Compound 78, N-[(4-Cyanophenyl)methanesulfonyl]-1-(thiophen-3-yl)cyclohexane-1-carboxamide], the remaining activity at 50 µM in assay [1] was 6.1%; in assay [2] it was 9.9%; in assay [3], 81.2%; in assay [4] it was 95.6%; in assay [5] it was 25.6%; in assay [6], 44.9%. Also, the concentration for half-maximal inhibition (IC50) is 0.038 µM in assay [1]; 0.19 µM in assay [2]; above 50 µM in assay [3]; above 50 µM in assay [4]; 0.25 µM in assay [5]; 25 µM in assay [6].

For `N#Cc1ccc(CS(=O)(=O)NC(=O)C2(c3ccsc3)CCCCC2)cc1Br` [Compound 106, N-[(4-Cyano-3-bromophenyl)methanesulfonyl]-1-(thiophen-3-yl)cyclohexane-1-carboxamide], the remaining activity at 50 µM in assay [1] was 5.4%; in assay [2], 7.8%; in assay [3], 29.6%; in assay [4] it was 94.3%; in assay [5], 22.5%; in assay [6], 17.6%. Also, the half-maximal inhibitory concentration (IC50) in assay [1] was 0.014 µM; in assay [2] it was 0.065 µM; in assay [3], 33 µM; in assay [4] it was above 50 µM; in assay [5], 0.022 µM; in assay [6] it was 7.84 µM.
